Measurements from patent publication US10150747B2, “Compounds for the treatment of hepatitis C” (BRISTOL-MYERS SQUIBB COMPANY, priority 2015, dated 2018).
Like-named read-outs stand apart in the source and are kept apart here.

What was measured:
[1] = biological target: HCV NS5B genotype 1b (Con1) (Hepatitis C virus genotype 1b (isolate Con1) (HCV), UniProt Q9WMX2); assay: HCV NS5B RdRp enzyme assay (1b enzyme); assay type: biochemical; conditions: genotype 1b NS5B enzyme
Protocol: HCV NS5B RdRp Cloning, Expression, and Purification.
The cDNA encoding NS5B proteins of HCV genotype 1b (Con1), a genotype 1b variant with amino acid 316 mutated from cysteine to asparagine, and genotype 2a (JFH-1), were cloned into the pET21a expression vector. Each untagged protein was expressed with an 18 amino acid C-terminal truncation to enhance the solubility. The E. coli competent cell line BL21(DE3) was used for expression of the protein. Cultures were grown at 37° C. for ˜4 hours until the cultures reached an optical density of 2.0 at 600 nm. The cultures were cooled to 20° C. and induced with 1 mM IPTG. Fresh ampicillin was added to a final concentration of 50 μg/mL and the cells were grown overnight at 20° C.
The lysis buffer consisted of 20 mM Tris-HCl, pH 7.4, 500 mM NaCl, 0.5% triton X-100, 1 mM DTT, 1 mM EDTA, 20% glycerol, 0.5 mg/mL lysozyme, 10 mM MgCl2, 15 ug/mL deoxyribonuclease I, and Complete TM protease inhibitor tablets (Roche). After addition of the lysis buffer, frozen cell pellets were resuspended using a tissue homogenizer. To reduce the viscosity of the sample, aliquots of the lysate were sonicated on ice using a microtip attached to a Branson sonicator. The sonicated lysate was centrifuged at 100,000×g for 30 minutes at 4° C. and filtered through a 0.2 μm filter unit (Corning).
The protein was purified using two sequential chromatography steps: Heparin sepharose CL-6B and polyU sepharose 4B. The chromatography buffers were identical to the lysis buffer but contained no lysozyme, deoxyribonuclease I, MgCl2 or protease inhibitor and the NaCl concentration of the buffer was adjusted according to the requirements for charging the protein onto the column. Each column was eluted with a NaCl gradient which varied in length from 5-50 column volumes depending on the column type. […] The enzyme was aliquoted and stored at −80° C.
HCV NS5B RdRp Enzyme Assay.
An on-bead solid phase homogeneous assay was used in a 384-well format to assess NS5B inhibitors (WangY-K, Rigat K, Roberts S, and Gao M (2006) Anal Biochem, 359: 106-111). The biotinylated oligo dT12 primer was captured on streptavidin-coupled imaging beads (GE, RPNQ0261) by mixing primer and beads in 1× buffer and incubating at room temperature for three hours. Unbound primer was removed after centrifugation. The primer-bound beads were resuspended in 3× reaction mix (20 mM Hepes buffer, pH 7.5, dT primer coupled beads, poly A template, ^3H-UTP, and RNAse inhibitor (Promega N2515)). Compounds were serially diluted 1:3 in DMSO and aliquoted into assay plates. Equal volumes (5 μL) of water, 3× reaction mix, and enzyme in 3× assay buffer (60 mM Hepes buffer, pH 7.5, 7.5 mM MgCl2, 7.5 mM KCl, 3 mM DTT, 0.03 mg/mL BSA, 6% glycerol) were added to the diluted compound on the assay plate. Final concentration of components in 384-well assay: 0.36 nM template, 15 nM primer, 0.29 μM ^3H-UTP (0.3 μCi), 1.6 U/4 RNAse inhibitor, 7 nM NS5B enzyme, 0.01 mg/mL BSA, 1 mM DTT, and 0.33 μg/μL beads, 20 mM Hepes buffer, pH 7.5, 2.5 mM MgCl2, 2.5 mM KCl, and 0.1% DMSO.
Reactions were allowed to proceed for 24 hours at 30° C. and terminated by the addition of 50 mM EDTA (5 μL). After incubating for at least 15 minutes, plates were read on an Amersham LEADseeker multimodality imaging system.
IC50 values for compounds were determined using ten different [I]. IC50 values were calculated from the inhibition using the four-parameter logistic formula y=A+((B−A)/(1+((C/x)^D))), where A and B denote minimal and maximal % inhibition, respectively, C is the IC50, D is hill slope and x represents compound concentration.

[2] = test system: genotype 1b (Con-1) HCV replicon in Huh-7 cells; assay: HCV replicon luciferase assay (1b replicon); assay type: cell-based; conditions: Hepatitis C virus
Protocol: The cell lines used to evaluate compounds consist of a human hepatocyte derived cell line (Huh-7) that constitutively expresses a genotype 1b (Con-1) HCV replicon or a genotype 1b (Con-1) HCV replicon with an asparagine replacing the cysteine at amino acid 316, or a genotype 2a (JFH-1) replicon, containing a Renilla luciferase reporter gene. These cells were maintained in Dulbecco's modified Eagle medium (DMEM) containing 10% FBS, 100 U/mL penicillin/streptomycin and 1.0 mg/mL G418.
HCV Replicon Luciferase Assay.
After 3 days incubation at 37° C., cells were analyzed for Renilla Luciferase activity using the EnduRen substrate (Promega cat #E6485) according to the manufacturer's directions. Briefly, the EnduRen substrate was diluted in DMEM and then added to the plates to a final concentration of 7.5 μM. The plates were incubated for at least 1 h at 37° C. then read on a Viewlux Imager (PerkinElmer) using a luminescence program.

[3] = 72 h, genotype 1b replicon, Huh-7, Renilla luciferase, 3 days incubation, read-out: EC50

HCV NS5B genotype 1b (Con1), sequence (Q9WMX2 2420-2992): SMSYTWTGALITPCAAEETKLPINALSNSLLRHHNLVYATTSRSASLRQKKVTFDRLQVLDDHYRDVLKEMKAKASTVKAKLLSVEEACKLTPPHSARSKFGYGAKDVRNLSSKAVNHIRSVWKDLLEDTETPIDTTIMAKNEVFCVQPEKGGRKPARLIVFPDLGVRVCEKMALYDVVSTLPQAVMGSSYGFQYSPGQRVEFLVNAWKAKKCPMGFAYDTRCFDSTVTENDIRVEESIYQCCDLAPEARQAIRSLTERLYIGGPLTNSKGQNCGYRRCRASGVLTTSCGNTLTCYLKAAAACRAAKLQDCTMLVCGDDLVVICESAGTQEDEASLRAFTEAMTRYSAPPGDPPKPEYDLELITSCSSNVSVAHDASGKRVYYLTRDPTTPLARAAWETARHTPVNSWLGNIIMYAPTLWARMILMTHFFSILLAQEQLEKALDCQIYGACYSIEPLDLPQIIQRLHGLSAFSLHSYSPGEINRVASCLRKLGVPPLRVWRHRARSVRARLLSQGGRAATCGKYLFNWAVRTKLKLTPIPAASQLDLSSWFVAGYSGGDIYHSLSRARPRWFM

| SMILES | IC50 [1] | EC50 [2, 3] | EC50 ([2]; Huh-7, 72 h) |
| --- | --- | --- | --- |
| CNC(=O)c1c(-c2ccc(F)cc2)oc2cc(OCC(F)(F)F)c(-c3ccc(F)c(C(=O)NC45CC(C4)C5)c3)cc12 [Example 4, 5-(3-(Bicyclo[1.1.1]pentan-1-ylcarbamoyl)-4-fluorophenyl)-2-(4-fluorophenyl)-N-methyl-6-(2,2,2-trifluoroethoxy)benzofuran-3-carboxamide] | 3.88 nM | 8.61 nM | – |
| CCOc1cc2oc(-c3ccc(F)cc3)c(C(=O)NC)c2cc1-c1cnc(OC)c(C(=O)NC2(c3ncccn3)CC2)c1 [Example 13, 5-(6-Ethoxy-2-(4-fluorophenyl)-3-(methylcarbamoyl)benzofuran-5-yl)-2-methoxy-N-(1-(pyrimidin-2-yl)cyclopropyl)nicotinamide] | 2.72 nM | 3.67 nM | – |
| CCOc1cc2oc(-c3ccc(F)cc3)c(C(=O)NC)c2cc1-c1ccc(CC)c(C(=O)NC(C)(C)c2ncon2)c1 [Example 24, 5-(3-((2-(1,2,4-oxadiazol-3-yl)propan-2-yl)carbamoyl)-4-ethylphenyl)-6-ethoxy-2-(4-fluorophenyl)-N-methylbenzofuran-3-carboxamide] | > 2500 nM | 280 nM | – |
| CNC(=O)c1c(-c2ccc(F)cc2)oc2cc(OCC(F)(F)F)c(-c3ccc(OC)c(C(=O)NC4(c5ncccn5)CC4)c3)cc12 [Example 2, 2-(4-Fluorophenyl)-5-(4-methoxy-3-((1-(pyrimidin-2-yl)cyclopropyl)carbamoyl)phenyl)-N-methyl-6-(2,2,2-trifluoroethoxy)benzofuran-3-carboxamide] | 4.15 nM | 6.24 nM | – |
| [2H]C([2H])([2H])Oc1ncc(-c2cc3c(C(=O)NC)c(-c4ccc(F)cc4)oc3cc2OCC)cc1C(=O)NC(C)(C)C#N [Example 17, N-(2-cyanopropan-2-yl)-5-(6-ethoxy-2-(4-fluorophenyl)-3-(methylcarbamoyl)benzofuran-5-yl)-2-(methoxy-d3)nicotinamide] | 1.84 nM | – | 2.8 nM |
| CNC(=O)c1c(-c2ccc(F)cc2)oc2cc(OCCO)c(-c3ccc(OC)c(C(=O)NC(C)(C)c4ncon4)c3)cc12 [Example 34, 5-(3-((2-(1,2,4-Oxadiazol-3-yl)propan-2-yl)carbamoyl)-4-methoxyphenyl)-2-(4-fluorophenyl)-6-(2-hydroxyethoxy)-N-methylbenzofuran-3-carboxamide] | 3.89 nM | 8.31 nM | – |
| CNC(=O)c1c(-c2ccc(F)cc2)oc2cc(OCC(F)(F)F)c(-c3cnc(OC)c(C(=O)NC4(c5ncccn5)CC4)c3)cc12 [Example 29, 5-(2-(4-Fluorophenyl)-3-(methylcarbamoyl)-6-(2,2,2-trifluoroethoxy)benzofuran-5-yl)-2-methoxy-N-(1-(pyrimidin-2-yl)cyclopropyl)nicotinamide] | 2.95 nM | 4.57 nM | – |
| CNC(=O)c1c(-c2ccc(F)cc2)oc2cc(OCC(F)(F)F)c(-c3cccc(C(=O)NC(C)(C)c4ncon4)c3)cc12 [Example 21, 5-(3-((2-(1,2,4-oxadiazol-3-yl)propan-2-yl)carbamoyl)phenyl)-2-(4-fluorophenyl)-N-methyl-6-(2,2,2-trifluoroethoxy)benzofuran-3-carboxamide] | 4.49 nM | 10 nM | – |
| CNC(=O)c1c(-c2ccc(F)cc2)oc2cc(OCC(F)F)c(-c3cccc(C(=O)NC(C)(C)c4ncon4)c3)cc12 [Example 19, 5-(3-((2-(1,2,4-Oxadiazol-3-yl)propan-2-yl)carbamoyl)phenyl)-6-(2,2-difluoroethoxy)-2-(4-fluorophenyl)-N-m ethylbenzofuran-3-carboxamide] | 4.2 nM | 7.41 nM | – |
| CNC(=O)c1c(-c2ccc(F)cc2)oc2cc(OCC(F)(F)F)c(-c3ccc(F)c(C(=O)NC4(c5ncccn5)CC4)c3)cc12 [Example 3, 5-(4-Fluoro-3-((1-(pyrimidin-2-yl)cyclopropyl)carbamoyl)phenyl)-2-(4-fluorophenyl)-N-methyl-6-(2,2,2-trifluoroethoxy)benzofuran-3-carboxamide] | 4.38 nM | 6.7 nM | – |
| CCOc1cc2oc(-c3ccc(F)cc3)c(C(=O)NC)c2cc1-c1cnc(OC)c(C(=O)NC23CC(C2)C3)c1 [Example 15, N-(bicyclo[1.1.1]pentan-1-yl)-5-(6-ethoxy-2-(4-fluorophenyl)-3-(methylcarbamoyl)benzofuran-5-yl)-2-methoxynicotinamide] | 2.48 nM | 7.03 nM | – |
| CNC(=O)c1c(-c2ccc(F)cc2)oc2cc(OCC(C)C)c(-c3ccc(OC)c(C(=O)NC(C)(C)c4ncon4)c3)cc12 [Example 26, 5-(3-((2-(1,2,4-oxadiazol-3-yl)propan-2-yl)carbamoyl)-4-methoxyphenyl)-2-(4-fluorophenyl)-6-isobutoxy-N-methylbenzofuran-3-carboxamide] | 30 nM | 80 nM | – |
| CCOc1cc2oc(-c3ccc(F)cc3)c(C(=O)NC)c2cc1-c1cccc(C(=O)NC23CC(C2)C3)c1 [Example 5, 5-(3-(Bicyclo[1.1.1]pentan-1-ylcarbamoyl)phenyl)-6-ethoxy-2-(4-fluorophenyl)-N-methylbenzofuran-3-carboxamide] | 4.3 nM | 6.5 nM | – |
| CCOc1cc2oc(-c3ccc(F)cc3)c(C(=O)NC)c2cc1-c1cccc(C(=O)NC(C)(C)c2nc3ccncc3[nH]2)c1 [Example 32, 5-(3-((2-(3H-imidazo[4,5-c]pyridin-2-yl)propan-2-yl)carbamoyl)phenyl)-6-ethoxy-2-(4-fluorophenyl)-N-methylbenzofuran-3-carboxamide] | 6.01 nM | 10 nM | – |
| CNC(=O)c1c(-c2ccc(F)cc2)oc2cc(OCC(F)(F)F)c(-c3cnc(OC)c(C(=O)NC(C)(C)c4ncon4)c3)cc12 [Example 31, N-(2-(1,2,4-Oxadiazol-3-yl)propan-2-yl)-5-(2-(4-fluorophenyl)-3-(methylcarbamoyl)-6-(2,2,2-trifluoroethoxy)benzofuran-5-yl)-2-methoxynicotinamide] | – | 3.21 nM | – |
| CNC(=O)c1c(-c2ccc(F)cc2)oc2cc(OCC(F)(F)F)c(-c3cnc(OC)c(C(=O)NC45CC(C4)C5)c3)cc12 [Example 30, N-(Bicyclo[1.1.1]pentan-1-yl)-5-(2-(4-fluorophenyl)-3-(methylcarbamoyl)-6-(2,2,2-trifluoroethoxy)benzofuran-5-yl)-2-methoxynicotinamide] | – | 10 nM | – |
| CCOc1cc2oc(-c3ccc(F)cc3)c(C(=O)NC)c2cc1-c1ccc(OC)c(C(=O)NC23CC(C2)C3)c1 [Example 11, 5-(3-(Bicyclo[1.1.1]pentan-1-ylcarbamoyl)-4-methoxyphenyl)-6-ethoxy-2-(4-fluorophenyl)-N-methylbenzofuran-3-carboxamide] | – | 9.63 nM | – |
